Results from ChEMBL document CHEMBL1201862, “PubChem BioAssay data set” (2004).
The source made the active and inactive calls.

How the values were obtained:
[1] = inhibitors of Vif binding to APOBEC3G peptide, primary screen, biochemical, TR-FRET, GST-Vif 1-94, biotin-A3G peptide, dose response retest (AID 1117319); assay type: functional;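 further: TR-FRET signal of purified GST-Vif binding a biotinylated A3G peptide; inhibitors lower the FRET signal by blocking Vif and A3G binding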
[2] = biological target: T1, Rac GTPase-activating protein 1 (Homo sapiens, UniProt Q9H0H5); assay: MgcRacGAP GTPase-activating activity inhibitors, confirmation, biochemical, ADP Hunter fluorescence, primary and confirmatory (AID 624330); assay type: functional
T1 sequence (Q9H0H5 whole entry): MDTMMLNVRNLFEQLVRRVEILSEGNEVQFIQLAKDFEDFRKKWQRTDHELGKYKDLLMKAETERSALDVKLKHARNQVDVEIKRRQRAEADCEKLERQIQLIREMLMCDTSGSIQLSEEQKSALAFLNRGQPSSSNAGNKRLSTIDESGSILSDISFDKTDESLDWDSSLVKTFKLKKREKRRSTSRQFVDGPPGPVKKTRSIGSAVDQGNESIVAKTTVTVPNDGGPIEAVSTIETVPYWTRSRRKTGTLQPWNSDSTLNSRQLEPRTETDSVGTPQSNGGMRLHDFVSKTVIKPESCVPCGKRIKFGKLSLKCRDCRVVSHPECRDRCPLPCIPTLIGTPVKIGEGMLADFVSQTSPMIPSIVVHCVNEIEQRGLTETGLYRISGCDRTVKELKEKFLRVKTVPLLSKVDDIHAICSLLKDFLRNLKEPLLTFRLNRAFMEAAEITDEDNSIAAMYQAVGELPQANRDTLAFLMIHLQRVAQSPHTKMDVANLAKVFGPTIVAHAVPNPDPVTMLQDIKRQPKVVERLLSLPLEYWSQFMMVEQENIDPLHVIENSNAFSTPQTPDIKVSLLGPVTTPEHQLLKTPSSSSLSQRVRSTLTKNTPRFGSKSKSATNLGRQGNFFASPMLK

[3] = biological target: T2, Histone-lysine N-methyltransferase NSD2 (Homo sapiens, UniProt O96028); assay type: biochemical
T2 sequence (O96028 whole entry): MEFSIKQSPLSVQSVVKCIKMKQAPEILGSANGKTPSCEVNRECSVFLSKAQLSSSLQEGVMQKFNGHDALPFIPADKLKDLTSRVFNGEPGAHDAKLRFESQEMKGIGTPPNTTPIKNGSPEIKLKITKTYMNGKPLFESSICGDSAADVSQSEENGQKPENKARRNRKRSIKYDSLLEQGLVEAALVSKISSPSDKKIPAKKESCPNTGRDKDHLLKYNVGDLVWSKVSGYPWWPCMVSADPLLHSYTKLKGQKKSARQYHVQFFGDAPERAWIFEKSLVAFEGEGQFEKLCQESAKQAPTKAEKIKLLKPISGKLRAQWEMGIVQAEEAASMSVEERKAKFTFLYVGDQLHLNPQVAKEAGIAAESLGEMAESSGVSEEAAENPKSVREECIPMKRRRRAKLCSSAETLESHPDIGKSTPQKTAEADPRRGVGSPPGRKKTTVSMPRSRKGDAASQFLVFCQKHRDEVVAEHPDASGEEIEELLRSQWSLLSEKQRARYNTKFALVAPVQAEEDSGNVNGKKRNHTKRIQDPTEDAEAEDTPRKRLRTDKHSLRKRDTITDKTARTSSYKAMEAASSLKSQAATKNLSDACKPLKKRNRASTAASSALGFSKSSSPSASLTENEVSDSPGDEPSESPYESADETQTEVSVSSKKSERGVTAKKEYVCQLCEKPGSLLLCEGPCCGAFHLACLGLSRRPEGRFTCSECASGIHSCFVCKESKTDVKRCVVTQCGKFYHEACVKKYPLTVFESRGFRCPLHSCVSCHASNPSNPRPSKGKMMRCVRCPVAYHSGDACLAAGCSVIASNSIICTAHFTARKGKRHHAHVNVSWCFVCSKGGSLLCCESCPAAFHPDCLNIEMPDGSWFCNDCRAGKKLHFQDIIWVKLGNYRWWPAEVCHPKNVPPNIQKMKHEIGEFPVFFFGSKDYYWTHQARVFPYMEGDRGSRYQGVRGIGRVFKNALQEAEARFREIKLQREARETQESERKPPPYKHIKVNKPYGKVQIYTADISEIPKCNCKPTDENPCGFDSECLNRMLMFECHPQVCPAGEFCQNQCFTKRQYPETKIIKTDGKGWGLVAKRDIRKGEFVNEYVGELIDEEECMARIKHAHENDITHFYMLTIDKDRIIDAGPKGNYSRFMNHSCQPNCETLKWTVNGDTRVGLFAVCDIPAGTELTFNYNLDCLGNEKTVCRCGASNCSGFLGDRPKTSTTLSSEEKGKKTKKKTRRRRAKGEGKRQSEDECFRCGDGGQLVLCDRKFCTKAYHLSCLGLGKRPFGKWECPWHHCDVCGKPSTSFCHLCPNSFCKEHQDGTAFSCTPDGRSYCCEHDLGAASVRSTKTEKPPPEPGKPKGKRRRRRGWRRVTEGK

Beta-galactosidase = Beta-galactosidase (Escherichia coli, UniProt Q8VNN2); assay: PubChem AID 485352; assay type: functional
Chain of Beta-galactosidase (Q8VNN2 whole entry): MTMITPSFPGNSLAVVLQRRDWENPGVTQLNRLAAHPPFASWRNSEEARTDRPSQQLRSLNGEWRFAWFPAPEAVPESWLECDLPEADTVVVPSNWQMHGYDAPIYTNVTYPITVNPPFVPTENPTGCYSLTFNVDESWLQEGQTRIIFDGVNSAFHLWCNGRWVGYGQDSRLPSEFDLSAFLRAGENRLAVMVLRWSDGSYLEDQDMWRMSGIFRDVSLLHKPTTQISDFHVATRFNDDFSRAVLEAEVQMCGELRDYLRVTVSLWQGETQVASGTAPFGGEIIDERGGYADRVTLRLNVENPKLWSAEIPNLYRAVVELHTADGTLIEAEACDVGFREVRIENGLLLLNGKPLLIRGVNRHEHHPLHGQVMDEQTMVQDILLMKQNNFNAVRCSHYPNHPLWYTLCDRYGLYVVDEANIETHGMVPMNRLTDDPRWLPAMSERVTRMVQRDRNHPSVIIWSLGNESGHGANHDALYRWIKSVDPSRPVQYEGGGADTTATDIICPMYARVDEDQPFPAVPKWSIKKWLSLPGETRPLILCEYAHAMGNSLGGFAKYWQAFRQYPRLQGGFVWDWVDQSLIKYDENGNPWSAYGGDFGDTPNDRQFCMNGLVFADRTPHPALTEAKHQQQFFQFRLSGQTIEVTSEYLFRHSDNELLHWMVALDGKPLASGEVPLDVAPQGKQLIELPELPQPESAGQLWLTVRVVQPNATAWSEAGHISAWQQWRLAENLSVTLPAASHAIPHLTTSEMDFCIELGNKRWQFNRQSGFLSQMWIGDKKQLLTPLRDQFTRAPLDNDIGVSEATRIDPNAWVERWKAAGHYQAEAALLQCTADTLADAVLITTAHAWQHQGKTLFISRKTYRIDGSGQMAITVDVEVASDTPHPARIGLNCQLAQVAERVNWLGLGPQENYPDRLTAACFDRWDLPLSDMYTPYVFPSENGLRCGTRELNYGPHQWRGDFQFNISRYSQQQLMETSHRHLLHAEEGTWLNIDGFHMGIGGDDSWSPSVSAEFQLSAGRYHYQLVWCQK

[4] = biological target: T3, Type-1 angiotensin II receptor (Homo sapiens, UniProt P30556); assay: AT1 receptor antagonists, dose response, selectivity assay for APJ receptor antagonist project, cell-based, uHTS hits (AID 463214); assay type: functional;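 further: antagonist potency against angiotensin II stimulated AT1 response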
T3 sequence (P30556 whole entry): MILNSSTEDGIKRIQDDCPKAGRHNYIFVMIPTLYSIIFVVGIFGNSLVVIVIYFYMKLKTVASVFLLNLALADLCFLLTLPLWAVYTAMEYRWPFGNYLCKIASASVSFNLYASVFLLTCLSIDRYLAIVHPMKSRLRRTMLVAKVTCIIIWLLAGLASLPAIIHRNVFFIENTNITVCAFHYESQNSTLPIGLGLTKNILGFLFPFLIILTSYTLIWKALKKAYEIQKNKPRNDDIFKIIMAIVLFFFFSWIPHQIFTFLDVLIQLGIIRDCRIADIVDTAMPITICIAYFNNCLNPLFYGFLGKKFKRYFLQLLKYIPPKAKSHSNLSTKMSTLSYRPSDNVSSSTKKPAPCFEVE

[5] = biological target: T4, Polyadenylate-binding protein 1 (Homo sapiens, UniProt P11940); assay: PABP1 MLLE–PAM2 interaction inhibitors, dose response, miRNA deadenylation inhibitor project, biochemical, fluorescence polarization, Cy5-PAM2 peptide, secondary (AID 602260); assay type: functional; conditions: read-out: IC50_Mean
T4 sequence (P11940 whole entry): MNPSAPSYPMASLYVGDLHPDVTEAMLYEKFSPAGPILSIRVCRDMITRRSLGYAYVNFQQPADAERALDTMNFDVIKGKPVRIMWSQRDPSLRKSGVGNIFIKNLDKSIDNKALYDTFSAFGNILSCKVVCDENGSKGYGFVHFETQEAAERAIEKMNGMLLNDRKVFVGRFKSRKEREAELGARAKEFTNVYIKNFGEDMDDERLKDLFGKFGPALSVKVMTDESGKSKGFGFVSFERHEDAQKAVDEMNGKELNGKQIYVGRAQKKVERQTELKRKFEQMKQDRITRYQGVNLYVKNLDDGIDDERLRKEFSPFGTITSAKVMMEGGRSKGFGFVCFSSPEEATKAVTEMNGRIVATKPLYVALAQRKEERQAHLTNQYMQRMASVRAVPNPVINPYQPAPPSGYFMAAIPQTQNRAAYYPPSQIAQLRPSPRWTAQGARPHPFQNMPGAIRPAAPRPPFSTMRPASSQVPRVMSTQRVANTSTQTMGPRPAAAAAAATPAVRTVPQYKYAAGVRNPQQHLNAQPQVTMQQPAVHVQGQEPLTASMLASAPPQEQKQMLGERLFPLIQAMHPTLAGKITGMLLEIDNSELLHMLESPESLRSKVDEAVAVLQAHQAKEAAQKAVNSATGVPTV

[6] = biological target: T4, Polyadenylate-binding protein 1; assay: PABP1 MLLE–PAM2 binding inhibitor potency, dose response, biochemical, fluorescence polarization, FITC-PAM2 peptide (AID 602259); assay type: functional; conditions: read-out: IC50_Mean
[7] = biological target: 26S proteasome non-ATPase regulatory subunit 14 (Homo sapiens, UniProt O00487); assay: inhibition of proteasome subunit RPN11 – biochemical, fluorescence polarization, uHTS hits, confirmation (AID 602368); assay type: functional
Chain of 26S proteasome non-ATPase regulatory subunit 14 (O00487 whole entry): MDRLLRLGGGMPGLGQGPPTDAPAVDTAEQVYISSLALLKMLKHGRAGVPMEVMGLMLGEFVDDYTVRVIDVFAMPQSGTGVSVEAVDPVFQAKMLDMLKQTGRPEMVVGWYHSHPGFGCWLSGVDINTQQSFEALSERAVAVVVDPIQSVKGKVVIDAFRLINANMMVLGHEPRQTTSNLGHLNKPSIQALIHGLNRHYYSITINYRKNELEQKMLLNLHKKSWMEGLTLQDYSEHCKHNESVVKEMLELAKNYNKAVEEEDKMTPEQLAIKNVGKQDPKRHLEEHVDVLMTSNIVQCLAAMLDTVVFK

[8] = biological target: 72 kDa type IV collagenase (Homo sapiens, UniProt P08253); assay: Dose Response validation of uHTS RPN11 inhibitor hits using a MMP-2 Fluorescence assay.; assay type: functional
Chain of 72 kDa type IV collagenase (P08253 whole entry): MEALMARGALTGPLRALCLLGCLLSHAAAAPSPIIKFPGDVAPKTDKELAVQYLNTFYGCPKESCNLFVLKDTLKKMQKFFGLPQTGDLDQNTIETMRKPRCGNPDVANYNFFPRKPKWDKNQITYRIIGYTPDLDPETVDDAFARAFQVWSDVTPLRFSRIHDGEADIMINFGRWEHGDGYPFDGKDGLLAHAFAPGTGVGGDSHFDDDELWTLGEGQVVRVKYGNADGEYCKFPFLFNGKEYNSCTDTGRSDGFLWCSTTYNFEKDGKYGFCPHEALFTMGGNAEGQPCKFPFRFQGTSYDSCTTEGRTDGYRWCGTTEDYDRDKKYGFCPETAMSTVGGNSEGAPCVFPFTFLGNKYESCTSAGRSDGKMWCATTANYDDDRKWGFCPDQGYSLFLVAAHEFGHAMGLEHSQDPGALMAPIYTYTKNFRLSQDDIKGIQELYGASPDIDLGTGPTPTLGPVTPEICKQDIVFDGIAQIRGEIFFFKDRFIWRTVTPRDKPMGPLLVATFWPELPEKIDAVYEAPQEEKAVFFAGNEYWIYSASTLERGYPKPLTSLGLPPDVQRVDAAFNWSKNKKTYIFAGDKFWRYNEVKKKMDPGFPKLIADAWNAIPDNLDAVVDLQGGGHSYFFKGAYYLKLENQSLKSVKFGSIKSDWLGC

Prothrombin = Prothrombin (Bos taurus, UniProt P00735); assay: thrombin inhibition, dose response, biochemical, fluorescence polarization, uHTS hits (AID 602369); assay type: functional
[9] = P. falciparum 3D7-ScDHODH growth inhibitors, dose response, SYBR Green, dry powder samples (AID 1159570); assay type: functional, cell-based;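 further: parasite growth measured after 72 hours of compound exposure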
[10] = P. falciparum Dd2 growth inhibitors, dose response, SYBR Green, cherry-picked samples (AID 1159567); assay type: functional, cell-based
[11] = P. falciparum Dd2 growth inhibitors, dose response, SYBR Green, dry powder samples (AID 1159566); assay type: functional, cell-based;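 further: potency for growth inhibition with lower SYBR green DNA signal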
[12] = P. falciparum ATP4 D1247Y mutant growth inhibitors, dose response, NITD609-resistant line, SYBR Green, dry powder (AID 1159571); assay type: functional, cell-based;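 further: parasites synchronized at ring stage by sorbitol before testing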
[13] = inhibitors of intracellular T. cruzi replication, confirmation, NIH3T3 host cells, beta-gal luminescence (AID 2044); assay type: functional, cell-based;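 further: intracellular parasites grown in NIH/3T3 mouse fibroblasts as host cells; luminescent beta-galactosidase reporter signal from transgenic T. cruzi replicating inside host cells; inhibitors lower the luminescence signal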
[14] = cytotoxicity toward NIH3T3 fibroblasts, dose response, counter-screen, cell-based, ATP luminescence, mouse fibroblasts (AID 2010); assay type: functional;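 further: cells exposed to compound for about 90 hours before reading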

SMILES: CC1SC(N/N=C/c2ccco2)=NC1=O (centres undefined)
- IC50 [1]: > 100 µM (active)

SMILES: N=C1/C(=C\c2ccc(O)c(O)c2)C(=O)N=C2SC(CC(=O)N3CCOCC3)=NN12
- IC50 [2]: 63.6 µM (active)
- AC50 [3]: 1.79 µM (active)

SMILES: C/C(=N\NC(=S)Nc1cccc(C)c1)c1ccccc1
- EC50 (Beta-galactosidase): > 40 µM (inactive)
- IC50 [4]: > 40 µM (not active)
- IC50 [5]: > 66 µM (inactive)
- IC50 [6]: > 66 µM (inactive)

SMILES: CCN(CC)CCOC(=O)c1ccc(NC=C2C(=O)NC(=O)NC2=O)cc1
- IC50 [7]: 22.4 µM (active)
- IC50 [8]: > 100 µM (inactive)
- IC50 (Prothrombin): 32.4 µM (active)

SMILES: Cc1ccc(S(=O)(=O)N(C)C[C@@H]2OCc3ccccc3-c3c(n(C)c4ccccc34)C(=O)N([C@@H](C)CO)C[C@@H]2C)cc1
- AC50 [9]: 0.427 µM (active)
- AC50 [10]: 0.611 µM (active)
- AC50 [11]: 0.346 µM (active)
- AC50 [12]: 0.291 µM (active)

SMILES: O=C(CSc1nc2ccccc2o1)Nc1nc2c(s1)CCCC2
- IC50 [7]: 30.6 µM (active)
- IC50 [8]: > 100 µM (inactive)
- IC50 (Prothrombin): 24 µM (active)

SMILES: COc1cc(C(=S)N2CCOCC2)ccc1O [VANITIOLIDE]
- IC50 [5]: > 66 µM (inactive)
- IC50 [6]: > 66 µM (inactive)

SMILES: CNCCCOc1cccc(Oc2ccccc2)c1
- EC50 [13]: 1.29 µM (active)
- EC50 [14]: > 30 µM (not active)
- AC50 [3]: > 20 µM (inactive)

SMILES: CSc1nc2oc3c(c2c2nncn12)CC(C)(C)SC3
- IC50 [5]: > 66 µM (inactive)
- IC50 [6]: > 66 µM (inactive)
